Assay [1] addresses T1, Calpain-2 catalytic subunit (Sus scrofa, UniProt P43367).
T1 sequence (P43367 whole entry): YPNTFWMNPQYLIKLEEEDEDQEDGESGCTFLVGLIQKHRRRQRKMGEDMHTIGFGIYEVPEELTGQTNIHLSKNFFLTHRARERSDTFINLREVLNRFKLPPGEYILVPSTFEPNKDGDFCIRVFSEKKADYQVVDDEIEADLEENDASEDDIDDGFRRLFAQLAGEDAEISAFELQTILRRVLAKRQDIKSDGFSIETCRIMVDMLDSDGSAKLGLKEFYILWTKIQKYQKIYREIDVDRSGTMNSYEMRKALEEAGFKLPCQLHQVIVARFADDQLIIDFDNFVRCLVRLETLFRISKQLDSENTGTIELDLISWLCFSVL
The assay can be described thus: pig calpain II inhibitor potency, dose response, biochemical, fluorogenic peptide substrate (AID 1420). Format: functional.

In assay [2] the test system is Vero. Description: cells. Format: functional. Conditions: Chlorocebus sabaeus.
Assay [3] concerns the target T2, Fatty acid synthase (Homo sapiens, UniProt P49327). Description: FAS thioesterase domain inhibitors, dose response, biochemical, endpoint fluorescence intensity, uHTS hits (AID 624327).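 Note: fluorescence from hydrolysis of an O-methyl fluorescein acyl ester substrate by the enzyme.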 The assay is classed as functional.
In assay [4] the target is T2, Fatty acid synthase. Description: FAS thioesterase domain inhibitors, dose response, biochemical, kinetic fluorescence intensity (AID 624326).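 Note: rate of fluorescence rise from hydrolysis of a fluorogenic O-methyl fluorescein ester substrate.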 The assay is classed as functional.
Assay [5] in a line: Luminescence Cell-Based Dose Response HTS to Identify Activators of Luciferase Translation or Activity in H4 […] Cells. [Related pubchem assays: 1829 (Project Summary), 1814 (Primary HTS)]. The assay is classed as functional.
Assay [6] deals with H4. The assay can be described thus: Luminescence Cell-Based Dose Response HTS to Identify Activators of 5'UTR Stem-Loop Driven Prion Protein mRNA Translation in H4 Neuroglioblastoma Cells. [Related pubchem assays: 1829 (Project Summary), 1814 (Primary HTS)]. The settings on record: Homo sapiens. The assay is classed as functional.
Assay [7] in a line: HEp-2 cell cytotoxicity, dose response, cytotoxicity control for RSV inhibitor project, HTS (AID 2410). Conditions: human respiratory syncytial virus. The assay is classed as functional.
The nature of assay [8]: Shn3 3'UTR reporter inhibitors, dose response, cell-based, Clone20 osteoblasts, firefly luciferase, cherry-picked (AID 624132).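 Note: firefly luciferase luminescence from reporter carrying the Shn3 3'UTR in osteoblasts.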 The assay is classed as functional.
The nature of assay [9]: HepG2 cell cytotoxicity, dose response, cytotoxicity control for Shn3 inhibitor project, CellTiter-Glo, cherry-picked (AID 624134). Format: functional, cell-based.
Assay [10] is described as follows: control 3'UTR Renilla luciferase suppression, dose response, counter-screen for Shn3 inhibitor project, cell-based, Clone20-Shn3RL, cherry-picked (AID 624133). Format: functional.
For assay [11], the system named is INS1. Description: beta cell apoptosis inhibitors, cytokine rescue, dose response, luminescence, retest (AID 449756).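 Note: cell death triggered by IL-1 beta plus TNF-alpha plus IFN-gamma mixture; protective hits raise ATP signal compared with cytokine alone wells.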 Conditions: Rattus norvegicus. The assay is classed as functional, cell-based.

Activity calls are given as the source filed them. Bounds are passed on as bounds.

T2 sequence (P49327 whole entry, the tested form may be a part): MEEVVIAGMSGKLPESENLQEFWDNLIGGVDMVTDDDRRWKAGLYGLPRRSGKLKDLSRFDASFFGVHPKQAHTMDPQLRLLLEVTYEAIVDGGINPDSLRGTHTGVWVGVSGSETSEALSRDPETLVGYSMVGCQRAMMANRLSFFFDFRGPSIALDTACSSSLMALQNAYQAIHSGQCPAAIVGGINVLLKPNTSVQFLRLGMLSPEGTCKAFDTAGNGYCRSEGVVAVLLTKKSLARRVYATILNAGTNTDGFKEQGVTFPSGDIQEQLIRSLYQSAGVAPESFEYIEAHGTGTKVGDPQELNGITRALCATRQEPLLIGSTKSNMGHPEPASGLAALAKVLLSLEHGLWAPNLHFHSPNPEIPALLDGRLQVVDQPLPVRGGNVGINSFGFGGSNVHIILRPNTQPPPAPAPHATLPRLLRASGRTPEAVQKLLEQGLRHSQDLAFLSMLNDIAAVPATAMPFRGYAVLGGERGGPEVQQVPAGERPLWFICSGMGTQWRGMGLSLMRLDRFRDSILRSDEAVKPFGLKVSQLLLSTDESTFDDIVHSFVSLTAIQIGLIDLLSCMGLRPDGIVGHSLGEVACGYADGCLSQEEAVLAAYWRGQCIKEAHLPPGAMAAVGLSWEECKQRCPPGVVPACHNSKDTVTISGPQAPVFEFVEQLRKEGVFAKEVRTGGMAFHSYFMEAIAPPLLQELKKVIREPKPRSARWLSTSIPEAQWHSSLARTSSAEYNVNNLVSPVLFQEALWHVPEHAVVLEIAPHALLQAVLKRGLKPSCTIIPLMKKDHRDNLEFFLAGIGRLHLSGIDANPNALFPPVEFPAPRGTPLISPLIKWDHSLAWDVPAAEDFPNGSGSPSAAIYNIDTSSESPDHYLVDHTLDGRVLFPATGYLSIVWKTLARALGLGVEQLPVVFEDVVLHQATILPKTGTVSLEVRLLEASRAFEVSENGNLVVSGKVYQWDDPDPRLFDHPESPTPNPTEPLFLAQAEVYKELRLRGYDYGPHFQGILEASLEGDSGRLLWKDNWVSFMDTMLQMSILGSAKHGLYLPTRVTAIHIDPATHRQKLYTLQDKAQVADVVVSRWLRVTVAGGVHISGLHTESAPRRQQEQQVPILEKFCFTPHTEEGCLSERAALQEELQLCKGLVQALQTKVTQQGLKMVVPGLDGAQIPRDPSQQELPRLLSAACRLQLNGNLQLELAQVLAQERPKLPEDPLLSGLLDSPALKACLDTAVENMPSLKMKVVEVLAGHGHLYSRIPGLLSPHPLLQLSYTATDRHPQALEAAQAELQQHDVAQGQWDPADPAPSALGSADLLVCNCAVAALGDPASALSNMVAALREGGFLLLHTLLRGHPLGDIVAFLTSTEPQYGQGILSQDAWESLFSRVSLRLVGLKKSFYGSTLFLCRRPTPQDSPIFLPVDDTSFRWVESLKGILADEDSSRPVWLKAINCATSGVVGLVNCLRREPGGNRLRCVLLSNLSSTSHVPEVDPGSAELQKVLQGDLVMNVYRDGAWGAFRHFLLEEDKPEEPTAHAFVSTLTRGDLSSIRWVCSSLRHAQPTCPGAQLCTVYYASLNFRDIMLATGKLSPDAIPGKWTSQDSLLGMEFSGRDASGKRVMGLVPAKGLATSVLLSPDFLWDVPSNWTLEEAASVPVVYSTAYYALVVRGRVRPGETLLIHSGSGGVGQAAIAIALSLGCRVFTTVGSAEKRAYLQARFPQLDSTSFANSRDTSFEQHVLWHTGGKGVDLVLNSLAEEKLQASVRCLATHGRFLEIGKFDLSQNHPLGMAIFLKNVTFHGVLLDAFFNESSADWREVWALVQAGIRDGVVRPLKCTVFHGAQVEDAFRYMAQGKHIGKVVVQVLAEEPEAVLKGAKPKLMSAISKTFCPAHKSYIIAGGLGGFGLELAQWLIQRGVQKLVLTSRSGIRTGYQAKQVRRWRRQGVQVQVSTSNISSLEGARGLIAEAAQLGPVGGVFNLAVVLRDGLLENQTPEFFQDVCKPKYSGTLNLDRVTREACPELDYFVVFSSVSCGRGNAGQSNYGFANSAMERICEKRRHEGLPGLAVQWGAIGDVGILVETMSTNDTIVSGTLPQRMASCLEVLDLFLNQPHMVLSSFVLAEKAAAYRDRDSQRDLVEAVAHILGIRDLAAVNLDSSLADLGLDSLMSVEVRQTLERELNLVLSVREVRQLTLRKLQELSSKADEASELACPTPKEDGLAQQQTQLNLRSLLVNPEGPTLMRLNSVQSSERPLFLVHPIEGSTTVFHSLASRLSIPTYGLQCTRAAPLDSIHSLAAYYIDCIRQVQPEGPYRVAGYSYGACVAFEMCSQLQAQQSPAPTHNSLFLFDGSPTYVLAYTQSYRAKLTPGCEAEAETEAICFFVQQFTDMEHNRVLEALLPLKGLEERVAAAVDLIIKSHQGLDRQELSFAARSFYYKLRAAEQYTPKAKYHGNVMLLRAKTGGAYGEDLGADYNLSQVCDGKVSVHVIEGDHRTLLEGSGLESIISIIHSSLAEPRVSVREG

For the molecule `Cc1ccccc1NC(=O)Cn1c(=O)n(Cc2ccccc2)c(=O)c2c(C)c(C)sc21`, the IC50 in assay [1] is 15 µM (not active).

On to `Cc1c(C(=O)N2CCOCC2)sc(NC(=O)CCl)c1C#N`, for which the CC50 in [2] is 22.3 µM (active).

Regarding `CN(C(=O)COC(=O)c1cc([N+](=O)[O-])ccc1Cl)c1ccccc1`, the results for the IC50 in [3] and in assay [4] were 9.59 µM (active) and 7 µM (active), respectively.

Consider `CCn1cnc2c1c(=O)n(CC(=O)Nc1ccc3c(c1)OC(F)(F)O3)c(=O)n2Cc1ccccc1`, for which the IC50 in assay [1] is < 0.4 µM (not active).

Regarding `O=C(/C=C/c1cc([N+](=O)[O-])ccc1OC(F)F)NCc1ccc(F)cc1`, the IC50 in assay [3] was 1.33 µM (active); in assay [4] it was 0.999 µM (active).

`O=C(Nc1cnc2sccn2c1=O)c1ccccc1Cl`: the EC50 was 0.199 µM (active) in [5] and > 120 µM (not active) in assay [6].

Turning to `CC(C)C[C@H](NC(=O)c1[nH]cnc1C(=O)NCCCCCNC(=O)OC(C)(C)C)C(=O)OC(C)(C)C`, the IC50 in [1] is reported as 26.6 µM (not active).

On to `O=C(CCNC(=O)c1ccc([N+](=O)[O-])cc1)NCCC1=CCCCC1`, for which the IC50 in assay [3] was 3.75 µM (active); in assay [4], 3.4 µM (active).

On to `CC(C)Cn1c(N)c(C(=O)COC(=O)c2ccc(Cl)cc2)c(=O)n(C)c1=O`, for which, in assay [1], the concentration for half-maximal inhibition (IC50) was 2.21 µM (active).

Consider `COc1ccccc1NC(=O)COC(=O)C12CC3CC(CC(Cl)(C3)C1)C2`, for which, in assay [1], the IC50 is listed as 13 µM (not active).

As to `O=C(NCc1ccc2c(c1)OCO2)c1ccc2c(c1)N(Cc1c(F)cccc1Cl)C(=O)CS2`, the IC50 in assay [3] was 10.3 µM (active); in [4], 6.15 µM (active).

For the molecule `CCN(CC)c1ccc(C(=O)NNC(=O)CCl)cc1`, the IC50 in assay [1] was 9.84 µM (active).

`CC(C)N(C(=O)COC(=O)c1ccc(O)cc1)C(C)C`: in assay [1], the IC50 is listed as 18.7 µM (not active).

Regarding `Cc1ccc(N(CCCCN2C(=O)c3ccccc3C2=O)C(=O)c2ccc(Cl)s2)cc1`, the cytotoxic concentration (CC50) in [7] is 24.1 µM (active). In addition, the IC50 in assay [1] was 2.83 µM (not active).

Regarding `Nc1ccccc1Sc1ccc(C(F)(F)F)cc1[N+](=O)[O-]`, the IC50 in assay [1] was 2.55 µM (active).

For `O=C1CC(c2ccccc2)Sc2nc3ccccc3n21` (stereo not drawn), the EC50 in [5] and in assay [6] was 15.4 µM (active) each time.

For `CC(=O)c1ccc(NC(=O)C(C)OC(=O)/C=C/c2ccco2)cc1` (stereo not drawn), the values for the AC50 in [8], in assay [9] and in assay [10] were 9.12 µM (active), > 70 µM (inactive) and 15.3 µM (active), respectively.

For `CCOC(=O)/C(=C/c1ccc(OC(F)F)cc1)C1=Nn2c(nnc2-c2ccc(Cl)cc2)SC1`, the cytotoxic concentration (CC50) in [2] was 7.48 µM (active).

In the case of `O=C(CN1C(=O)c2ccc([N+](=O)[O-])cc2C1=O)NCCC1=CCCCC1`, the IC50 in assay [3] is 20.9 µM (inactive); in assay [4] it was 15.4 µM (active).

Take `Nc1nc(N)c2cc(CNc3ccc(Cl)c(Cl)c3)ccc2n1`: the AC50 is 0.956 µM (active) in assay [8], 1.21 µM (active) in assay [9] and 3.34 µM (active) in assay [10].

On to `C/N=C1/c2cc3cc(OC)ccc3n2CCN1Cc1ccccc1`, for which, in [9], the AC50 was 45.4 µM (active).

As to `COC(=O)c1cc(C(=O)OCC(=O)NC2CCCCCCC2)cc([N+](=O)[O-])c1`, the IC50 was 7.09 µM (active) in [3] and 8 µM (active) in assay [4].

As for `Cc1ccc(-c2[nH]ncc2/C=N/n2c(COc3ccccc3C)nc3ccccc3c2=O)cc1`, the IC50 in assay [1] was 28 µM (not active). The AC50 in assay [11] was 6.28 µM (active).

With `O=[N+]([O-])c1cccc(/C=N\N=C2c3ccccc3-c3ccccc32)c1O`, the IC50 in assay [1] is < 0.4 µM (not active).

For the origin of these results see ChEMBL document CHEMBL1201862, “PubChem BioAssay data set” (2004).
